Measured values as given in patent publication US8173668B1 (Alcon Research, Ltd., priority 2007, dated 2012).
Like-named read-outs stand apart in the source and are kept apart here.

Columns and labels:
[1] = test system: ocular hypertensive eyes of ketamine-sedated cynomolgus monkeys; assay: Aqueous humor dynamics (fluorophotometry, tonography) in ketamine-sedated cynomolgus monkeys; format: in vivo; settings: Treatment Day, Hypertensive Eye OS; one drop of 30 μl 0.01% the day before; mean ± SD
Source text: Methods used in this Example were described by Yablonski et al. Invest Ophthalmol V is Sci 1987; 28:2076-2082; Hayashi et al. Exp Eye Res 1989; 48:621-625; Mäepea et al. Exp Eye Res 1989; 49:645-663, and as below:
Twelve female cynomolgus monkeys between the ages of 5 and 8 years were included in the study. All had unilateral laser treatment to the trabecular meshwork of the left eye. Lasering had been done between 2 and 4 years before the study.
Measurements were made on baseline day and after AL-42205-01 (FR-190997) treatment to both eyes. When necessary, sedation was induced by ketamine hydrochloride (HCl), 1 to 5 mg/kg, administered intramuscularly 5 minutes before a measurement to achieve pharmacological restraint. Animals were seated in specially designed chairs for all tonometry and fluorophotometry measurements. Fifteen hours prior to each study day, IOP1 was measured with a pneumatonometer (Classic 30, Xomed, Jacksonville, Fla.) after topical application of proparacaine HCl, 0.13%. Fluorescein (10%) was applied to the cornea by topical drops. Measurements commenced at 8:30-9:00 a.m. the following day with tonometry (IOP2). The fluorescence of the cornea and anterior chamber were measured in duplicate with a scanning fluorophotometer (Fluorotron, OcuMetrics, Palo Alto, Calif.). Scans were taken at 45 minute intervals for a total of 4 sets.
After the fourth set of scans and another IOP measurement (IOP3), an intramuscular injection of acetazolamide (12-20 mg/kg) was administered to reduce IOP by reducing aqueous flow. The dose of acetazolamide for individual monkeys depended on its IOP efficacy in previous studies. Fluorophotometric scans and IOP measurements were repeated 0.75, 1.50 and 2.25 hours after acetazolamide injection. Fluorophotometric outflow facility (Cfl) was calculated as the ratio of the change in aqueous flow to the change in IOP. Uveoscleral outflow (Fus) was calculated by the equation Fus=Fa−Cfl (IOP3−Pev) where Pev is the episcleral venous pressure. A value of 15 mmHg was used. The final measurement was two-minute tonography. The tonography mode of the pneumatonometer was used. Calculations were made using PowerLab and Excel.
Treatment measurements were collected between 6 and 21 days after baseline measurements. The day before the measurement day, conscious IOP was measured (IOP1; 9:00 AM) and one drop of 30 μl of AL-42205-01 0.01% (in matrix vehicle) was applied to both eyes. The drug was used within a week of receipt. It was stored refrigerated before use. Conscious IOP was measured again (IOP2; 5 PM) just before fluorescein was applied as before. The day of fluorophotometry, all measurements were made under sedation as on baseline day.
Values were compared between eyes on each day and baseline values were compared with post-treatment values using Student's two-tailed paired t-test (Table 11). Values are reported as means± standard deviation (SD).

[2] = Ocular pharmacokinetic study in rabbit eyes, single topical ocular dose; format: in vivo; settings: single 300 μg topical ocular dose; for concentration at 0.5 hr: 0.5 hr post-dosing; for concentration at 1 hr: 1.0 hr post-dosing; for concentration at 3 hr: 3 hr post-dosing; for concentration at 6 hr: 6 hr post-dosing
Description: In order to better understand the time-course of action of FR-190997, a pharmacokinetic study was performed in rabbit eyes using a single 300 μg topical ocular dose of FR-190997. […] Due to the activation of multiple signaling pathways by BK (see above), and presumably FR-190997, and the convergence and amplification of the down-stream biochemical reactions in the target cells/tissues, it is quite possible that activation of only a few BK receptors by FR-190997 may result in quite profound IOP-lowering.

[3] = molecular target: T1, B2-receptors in h-CM cells (Homo sapiens, UniProt P30411); assay: [Ca2+]i mobilization (FLIPR) in h-CM cells, agonist mode; format: cell-based; settings: h-CM cells, mean ± SEM
T1 construct: B2-receptor proteins in h-TM, h-CM and h-NPE cells; endogenous in cells; host or cells: human trabecular meshwork (h-TM), human ciliary muscle (h-CM) and human non-pigmented ciliary epithelial (h-NPE) cells
T1 sequence (P30411 1-391): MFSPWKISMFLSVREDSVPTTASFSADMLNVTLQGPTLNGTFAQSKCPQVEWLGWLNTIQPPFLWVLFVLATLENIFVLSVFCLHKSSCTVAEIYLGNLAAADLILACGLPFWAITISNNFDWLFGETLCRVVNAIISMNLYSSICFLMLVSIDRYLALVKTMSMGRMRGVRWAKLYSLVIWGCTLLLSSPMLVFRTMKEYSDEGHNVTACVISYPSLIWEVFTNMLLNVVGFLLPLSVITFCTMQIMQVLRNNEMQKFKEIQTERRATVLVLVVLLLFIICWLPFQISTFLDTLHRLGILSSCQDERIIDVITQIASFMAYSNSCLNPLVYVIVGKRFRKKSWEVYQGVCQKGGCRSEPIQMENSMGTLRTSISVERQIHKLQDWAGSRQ
Description: On the day of the experiment, one vial of FLIPR Calcium Assay Kit dye is re-suspended in 50 mL of a FLIPR buffer consisting of Hank's Balanced Salt Solution (HBSS), 20 mM HEPES, and 2.5 mM probenecid, pH 7.4. Cells are loaded with the calcium-sensitive dye by addition of an equal volume (50 μL) to each well of the 96-well plate and incubated with dye for 1 h at 23° C. After this time, the test compound plate and cell plate are placed in the FLIPR instrument. At the beginning of an experimental run, a signal test is performed to check the basal fluorescence signal from the dye-loaded cells and the uniformity of the signal across the plate. The basal fluorescence is adjusted between 8000-12000 counts by modifying the exposure time, the camera F-stop, or the laser power. Instrument settings for a typical assay are the following: laser power 0.3-0.6 W, camera F-stop F/2, and exposure time 0.4 sec.
Fluorescence data are collected in real-time at 1.0 sec intervals for the first 60 secs and at 6.0 sec intervals for an additional 120 secs. […] The data are then analyzed using an automated, iterative, sigmoidal curve-fitting computer program to obtain the potency and intrinsic activities of the test agents as previously described (Sharif et al. J. Pharmacol. Exp. Ther. 286: 1094-1102, 1998; Sharif et al. Invest. Ophthalmol. Vis. Sci. 39:2562-2571, 1998; Kelly et al. J. Pharmacol. Exp. Ther. 304: 238-245, 2003). The sources of materials and reagents for such assays can be found in the references cited above.

[4] = aqueous humor, read-out: Aqueous Humor Concentration
[5] = ciliary body, read-out: Ciliary Body Concentration

Question: With `CNC(=O)c1ccc(/C=C/C(=O)NCC(=O)N(C)c2ccc(Cl)c(COc3cccc4c(OCc5ccccn5)cc(C)nc34)c2Cl)cc1` [FR-190997] as the compound, how does the “Cfl, fluorophotometric outflow facility” value [1] read?
Answer: 0.18 ± 0.16 μl/min/mmHg

Question: What about the “Cton, tonographic outflow facility” value [1] of the same compound?
Answer: 0.17 ± 0.11 μl/min/mmHg

Question: What about the “Fa, aqueous flow” value [1] of the same compound?
Answer: 1.48 ± 0.53 µL/min

Question: What about the “Fufl, uveoscleral outflow calculated with Cfl” value [1] of the same compound?
Answer: 1.23 ± 0.91 µL/min

Question: What about the “Futon, uveoscleral outflow calculated with Cton” value [1] of the same compound?
Answer: 1.45 ± 0.45 µL/min

Question: What about the concentration at 0.5 hr [2, 4] of the same compound?
Answer: 0.9 ± 0.2 nM

Question: What about the concentration at 1 hr [2, 4] of the same compound?
Answer: 16 ± 4.7 nM

Question: And the concentration at 1.5 hr ([2]; aqueous humor, 1.5 hr post-dosing)?
Answer: 3.1 ± 1.1 nM

Question: And the concentration at 3 hr [2, 4]?
Answer: 139 ± 114 nM

Question: What about the concentration at 6 hr [2, 4] of the same compound?
Answer: 16.6 ± 4.6 nM

Question: What about the concentration at 0.5 hr [2, 5] of the same compound?
Answer: 2.75 ± 1.7 nM

Question: What about the concentration at 1 hr [2, 5] of the same compound?
Answer: 5.52 ± 1.68 nM

Question: And the concentration at 3 hr [2, 5]?
Answer: 26.4 ± 7.9 nM

Question: And the concentration at 6 hr [2, 5]?
Answer: 37 ± 10.6 nM

Question: What about the “peak aqueous humor level” value [2] of the same compound?
Answer: 139 nM

Question: And the “time of peak aqueous humor level post-dosing” value [2]?
Answer: 3 h

Question: What about the Emax ([3]; read-out: Intrinsic Activity (Emax, % max relative to BK)) of the same compound?
Answer: 63%

Question: What about the EC50 ([3]; read-out: Potency (EC50), [Ca2+]i mobilization) of the same compound?
Answer: 174 ± 21 nM
